# Measurements taken from ChEMBL document CHEMBL5260810, “Inhibition of bromodomain-containing protein 9 for the prevention of epigenetically-defined drug resistance” (Bioorg Med Chem Lett, 2017).
# Legend:
# Format in all cases: functional, cell-based
# MKN-1 = test: Cytotoxicity against human MKN-1 cells measured after 8 days; details: MKN-1, 192 h
# [1] = Cytotoxicity against human NCE-G 122 cells measured after 8 days; details: NCE-G 122, 192 h
# SU.86.86 = test: Cytotoxicity against human SU-86-86 cells measured after 8 days; details: SU.86.86, 192 h
# TYK-nu = test: Cytotoxicity against human TYK-nu cells measured after 8 days; details: 192 h
# YAPC = test: Cytotoxicity against human YAPC cells measured after 8 days; details: 192 h
# MeWo = test: Cytotoxicity against human MeWo cells measured after 8 days; details: 192 h
# [2] = Cytotoxicity against human HLF cells measured after 8 days; details: 192 h
# A498 = test: Cytotoxicity against human A498 cells measured after 8 days; details: A498, 192 h
# COLO-684 = test: Cytotoxicity against human COLO-684 cells measured after 8 days; details: COLO-684, 192 h
# [3] = Cytotoxicity against human NCE-G 59 cells measured after 8 days; details: NCE-G 59, 192 h
# ES-2 = test: Cytotoxicity against human ES2 cells measured after 8 days; details: ES-2, 192 h
# [4] = Cytotoxicity against human OVCA 420 cells measured after 8 days; details: OVCA 420, 192 h
# [5] = Cytotoxicity against human NCI-H196 cells measured after 8 days; details: NCI-H196, 192 h
# [6] = Cytotoxicity against human KMS-34 cells measured after 8 days; details: KMS-34, 192 h
# [7] = Cytotoxicity against mouse Clone M-3 cells measured after 8 days; details: Clone M-3, 192 h
# MCF-10A [8] = test: Cytotoxicity against human MCF-10A PTEN-/- cells measured after 8 days; details: 192 h
# SK-CO-1 = test: Cytotoxicity against human SK-CO-1 cells measured after 8 days; details: SK-CO-1, 192 h
# SW1463 = test: Cytotoxicity against human SW1463 cells measured after 8 days; details: SW1463, 192 h
# [9] = Cytotoxicity against human HEC-151 cells measured after 8 days; details: HEC-151, 192 h
# [10] = Cytotoxicity against mouse LA-4 cells measured after 8 days; details: LA-4, 192 h
# [11] = Cytotoxicity against human KPP-1 cells measured after 8 days; details: KPP-1, 192 h
# NCI-N87 = test: Cytotoxicity against human NCI-N87 cells measured after 8 days; details: NCI-N87, 192 h
# Renca = test: Cytotoxicity against mouse Renca cells measured after 8 days; details: 192 h
# TMD8 = test: Cytotoxicity against human TMD8 cells measured after 8 days; details: TMD8, 192 h
# [12] = Cytotoxicity against mouse AE17 cells measured after 8 days; details: AE17, 192 h
# A673 = test: Cytotoxicity against human A673 cells measured after 8 days; details: A673, 192 h
# B16-F10 = test: Cytotoxicity against mouse B16-F10 cells measured after 8 days; details: B16-F10, 192 h
# [13] = Cytotoxicity against human IGR-39 cells measured after 8 days; details: IGR-39, 192 h
# HCC1187 = test: Cytotoxicity against human HCC1187 cells measured after 8 days; details: HCC1187, 192 h
# CAL-27 = test: Cytotoxicity against human CAL-27 cells measured after 8 days; details: CAL-27, 192 h
# SJRH30 = test: Cytotoxicity against human SJRH30 cells measured after 8 days; details: SJRH30, 192 h
# COLO-800 = test: Cytotoxicity against human COLO-800 cells measured after 8 days; details: COLO-800, 192 h
# [14] = Cytotoxicity against human NJG cells measured after 8 days; details: 192 h
# T98G = test: Cytotoxicity against human T98G cells measured after 8 days; details: 192 h
# [15] = Cytotoxicity against human HEC-108 cells measured after 8 days; details: HEC-108, 192 h
# SUM149PT = test: Cytotoxicity against human SUM149PT cells measured after 8 days; details: 192 h
# MCF-10A [16] = test: Cytotoxicity against human MCF-10A cells measured after 8 days; details: 192 h
# [17] = Cytotoxicity against human ASH-3 cells measured after 8 days; details: ASH-3, 192 h
# [18] = Cytotoxicity against human 537-mel cells measured after 8 days; details: 192 h
# EFE-184 = test: Cytotoxicity against human EFE-184 cells measured after 8 days; details: EFE-184, 192 h
# [19] = Cytotoxicity against human RKN cells measured after 8 days; details: 192 h
# KP-N-YN = test: Cytotoxicity against human KP-N-YN cells measured after 8 days; details: 192 h
# HuCCT-1 = test: Cytotoxicity against human HuCCT-1 cells measured after 8 days; details: HuCCT-1, 192 h
# 143B = test: Cytotoxicity against human 143B cells measured after 8 days; details: 192 h
# [20] = Cytotoxicity against mouse LTPA cells measured after 8 days; details: 192 h
# [21] = Cytotoxicity against human NCE-G 130 cells measured after 8 days; details: NCE-G 130, 192 h
# [22] = Cytotoxicity against human UCSD-242L cells measured after 8 days; details: 192 h
# A 172 = test: Cytotoxicity against human A-172 cells measured after 8 days; details: A 172, 192 h
# [23] = Cytotoxicity against human RMUG-S cells measured after 8 days; details: 192 h
# [24] = Cytotoxicity against human Karpas-620 cells measured after 8 days; details: Karpas-620, 192 h
# SW1990 = test: Cytotoxicity against human SW1990 cells measured after 8 days; details: SW1990, 192 h
# SK-N-BE(2) = test: Cytotoxicity against human SK-N-BE(2) cells measured after 8 days; details: SKNBE2, 192 h
# [25] = Cytotoxicity against human KR7251 cells measured after 8 days; details: KR7251, 192 h
# ML-2 = test: Cytotoxicity against human ML-2 cells measured after 8 days; details: ML-2, 192 h
# CaR-1 = test: Cytotoxicity against human CaR-1 cells measured after 8 days; details: CaR-1, 192 h
# KYSE-150 cell line = test: Cytotoxicity against human KYSE-150 cell line measured after 8 days; details: KYSE-150, 192 h
# NB1 = test: Cytotoxicity against human NB1 cells measured after 8 days; details: NB1, 192 h
# HMV-2 cell line = test: Cytotoxicity against human HMV-2 cell line measured after 8 days; details: HMV-2, 192 h
# [26] = Cytotoxicity against human MT-3 cells measured after 8 days; details: MT-3, 192 h
# [27] = Cytotoxicity against human HCSC-1 cells measured after 8 days; details: HCSC-1, 192 h
# [28] = Cytotoxicity against human SC1 cells measured after 8 days; details: SC-1, 192 h
# WM-115 = test: Cytotoxicity against human WM-115 cells measured after 8 days; details: WM-115, 192 h
# OAW-42 = test: Cytotoxicity against human OAW-42 cells measured after 8 days; details: OAW-42, 192 h
# SNG-M = test: Cytotoxicity against human SNG-M cells measured after 8 days; details: 192 h
compound,measurement,setting,value
C/C=C/Cn1cc(-c2ccc(C(C)(C)O)cc2OC)c2cc[nH]c2c1=O,IC50,MKN-1,20 µM
same,IC50,[1],20 µM
same,IC50,SU.86.86,20 µM
same,IC50,TYK-nu,20 µM
same,IC50,YAPC,20 µM
same,IC50,MeWo,20 µM
same,IC50,[2],20 µM
same,IC50,A498,20 µM
same,IC50,COLO-684,20 µM
same,IC50,[3],20 µM
same,IC50,ES-2,20 µM
same,IC50,[4],20 µM
same,IC50,[5],20 µM
same,IC50,[6],20 µM
same,IC50,[7],20 µM
same,IC50,MCF-10A [8],20 µM
same,IC50,SK-CO-1,20 µM
same,IC50,SW1463,20 µM
same,IC50,[9],20 µM
same,IC50,[10],20 µM
same,IC50,[11],20 µM
same,IC50,NCI-N87,20 µM
same,IC50,Renca,20 µM
same,IC50,TMD8,20 µM
same,IC50,[12],20 µM
same,IC50,A673,20 µM
same,IC50,B16-F10,20 µM
same,IC50,[13],20 µM
same,IC50,HCC1187,20 µM
same,IC50,CAL-27,20 µM
same,IC50,SJRH30,20 µM
same,IC50,COLO-800,20 µM
same,IC50,[14],20 µM
same,IC50,T98G,20 µM
same,IC50,[15],20 µM
same,IC50,SUM149PT,20 µM
same,IC50,MCF-10A [16],11.4 µM
same,IC50,[17],20 µM
same,IC50,[18],20 µM
same,IC50,EFE-184,20 µM
same,IC50,[19],20 µM
same,IC50,KP-N-YN,20 µM
same,IC50,HuCCT-1,20 µM
same,IC50,143B,17.2 µM
same,IC50,[20],20 µM
same,IC50,[21],20 µM
same,IC50,[22],20 µM
same,IC50,A 172,20 µM
same,IC50,[23],20 µM
same,IC50,[24],20 µM
same,IC50,SW1990,20 µM
same,IC50,SK-N-BE(2),20 µM
same,IC50,[25],20 µM
same,IC50,ML-2,20 µM
same,IC50,CaR-1,20 µM
same,IC50,KYSE-150 cell line,20 µM
same,IC50,NB1,10.2 µM
same,IC50,HMV-2 cell line,20 µM
same,IC50,[26],20 µM
same,IC50,[27],20 µM
same,IC50,[28],17.8 µM
same,IC50,WM-115,20 µM
same,IC50,OAW-42,20 µM
same,IC50,SNG-M,20 µM
C/C=C/Cn1cc(-c2ccc(C(=O)N3CCOCC3)cc2)c2cc[nH]c2c1=O,IC50,MKN-1,20 µM
same,IC50,[1],20 µM
same,IC50,SU.86.86,20 µM
same,IC50,TYK-nu,20 µM
same,IC50,YAPC,20 µM
same,IC50,MeWo,20 µM
same,IC50,[2],20 µM
same,IC50,A498,20 µM
same,IC50,COLO-684,20 µM
same,IC50,[3],20 µM
same,IC50,ES-2,20 µM
same,IC50,[4],20 µM
same,IC50,[5],20 µM
same,IC50,[6],15.3 µM
same,IC50,[7],20 µM
same,IC50,MCF-10A [8],20 µM
same,IC50,SK-CO-1,20 µM
same,IC50,SW1463,20 µM
same,IC50,[9],20 µM
same,IC50,[10],12 µM
same,IC50,[11],10.9 µM
same,IC50,NCI-N87,20 µM
same,IC50,Renca,20 µM
same,IC50,TMD8,20 µM
same,IC50,[12],18.1 µM
same,IC50,A673,20 µM
same,IC50,B16-F10,20 µM
same,IC50,[13],20 µM
same,IC50,HCC1187,20 µM
same,IC50,CAL-27,20 µM
same,IC50,SJRH30,20 µM
same,IC50,COLO-800,20 µM
same,IC50,[14],20 µM
same,IC50,T98G,20 µM
same,IC50,[15],20 µM
same,IC50,SUM149PT,20 µM
same,IC50,MCF-10A [16],20 µM
same,IC50,[17],20 µM
same,IC50,[18],20 µM
same,IC50,EFE-184,20 µM
same,IC50,[19],20 µM
same,IC50,KP-N-YN,20 µM
same,IC50,HuCCT-1,20 µM
same,IC50,143B,20 µM
same,IC50,[20],20 µM
same,IC50,[21],20 µM
same,IC50,[22],20 µM
same,IC50,A 172,20 µM
same,IC50,[23],20 µM
same,IC50,[24],20 µM
same,IC50,SW1990,20 µM
same,IC50,SK-N-BE(2),20 µM
same,IC50,[25],20 µM
same,IC50,ML-2,20 µM
same,IC50,CaR-1,20 µM
same,IC50,KYSE-150 cell line,20 µM
same,IC50,NB1,20 µM
same,IC50,HMV-2 cell line,20 µM
same,IC50,[26],20 µM
same,IC50,[27],20 µM
same,IC50,[28],20 µM
same,IC50,WM-115,20 µM
same,IC50,OAW-42,20 µM
same,IC50,SNG-M,20 µM
